Data on one substance can be found in patent US11077126B2 (priority 2017, dated 2021).

Like-named read-outs stand apart in the source and are kept apart here.

For this series, the system named is mouse bone marrow polychromatic erythrocytes. To be noted: mouse, in vivo; for Number of Micronuclei / P/N / P/N Ratio: po. The protocol:
It is the object to test the mutagenic potential of drugs on mammalian somatic cells, and provide a basis for clinical drug use.
An appropriate amount of 0.5% sodium carboxymethyl cellulose solution was added to prepare a suspension, and the suspension was stored in a refrigerator at 4° C. The negative control was an equal amount of 0.5% sodium carboxymethylcellulose solution. The positive control was prepared as follows: an appropriate amount of cyclophosphamide used for injection was weighed, and was dissolved in normal saline at the time of use to prepare 60 mg/kg of solution.
6 mice per group. The doses, number of administrations, and bone marrow sampling time are selected in the pre-test.
The dose is reduced by ½ LD50 as the standard, and the number of administrations is one time. According to the pre-test results, the bone marrow sampling time is to sample 24 hours after administration.
At least three dose groups, respectively: 2,000 mg/kg, 1,000 mg/kg, 500 mg/kg
The number of administrations: one-time oral administration.
Oral (Intragastric) administration.
2.4.3 Bone marrow sampling time: 24 hours after administration.
The mice were sacrificed by cervical dislocation. Then the sternums were taken to remove the muscles thereon and the attachments were wiped with a gauze. Direct smear of bone marrow was used: the sternums were cut to expose the medullary cavity, and bone marrow was extruded and mixed well with a drop of calf serum on a slide beforehand as a push piece. After being dried, the slide was fixed in methanol for 10 minutes, and then after it was dried, it was then subjected to Giemsa staining. Each mouse was microscopically examined for about 1,000 polychromatic erythrocytes with intact contours of erythrocytes, and the frequency of occurrence of micronuclei and the ratio of polychromatic erythrocytes to erythrocytes were counted.

In the case of Carrimycin, the “conclusion of micronucleus test: chromosomal cleavage” value is “is not a chromosomal cleavage agent”, the “conclusion of micronucleus test: effect on the bone marrow” value was “no inhibitory effect on the bone marrow” and the “micronucleus rate of polychromatic erythrocytes compared with the negative control group” value is on record as “do not have significant increase”. In addition, where the note is “500 mg/kg”, the “Number of Micronuclei” value came to 18, the P/N is 0.34 and the “P/N Ratio” value amounted to 0.34. Besides, for the setting “1000 mg/kg”, the “Number of Micronuclei” value was 16, the P/N was found to be 0.33 and the “P/N Ratio” value was 0.33. For the setting “2000 mg/kg”, the “Number of Micronuclei” value is listed as 21, the P/N turned out to be 0.38 and the “P/N Ratio” value was found to be 0.38.
